According to paper PMC10413841, “Exploration of Thiourea-Based Scaffolds for the Construction of Bacterial Ureases Inhibitors” (ACS Omega, 2023):
Where “and” joins values, the source holds several entries; their conditions need not be identical. Equal entries are not always repeated. Where two headings read alike, the source gives them in different places.

Assays:
[1] = molecular target: T1, native S. pasteurii CCM 2056 urease (Sporosarcina pasteurii, UniProt P41020); experiment: Inhibition of purified native urease, indophenol (Berthelot) ammonia assay; assay type: biochemical; settings: for Ki: purified native enzyme, EI dissociation constant from Lineweaver-Burke plots, urea up to 30 mM, 3 mM phosphate buffer; for α quantifier between ESI dissociation constant Ki* and EI dissociation constant Ki / type (mode) of inhibition: purified S. pasteurii urease
T1 construct: The S. pasteurii CCM 2056 cells were used as the source of a native enzyme; endogenous in cells; host or cells: S. pasteurii CCM 2056 culture; endogenous enzyme purified in house from the sonicated cell extract by five-step chromatography
T1 sequence (P41022 whole entry): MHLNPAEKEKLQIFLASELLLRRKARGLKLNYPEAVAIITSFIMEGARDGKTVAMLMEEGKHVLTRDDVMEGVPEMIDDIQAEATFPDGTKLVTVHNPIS
T1 sequence (P41021 whole entry, further chain): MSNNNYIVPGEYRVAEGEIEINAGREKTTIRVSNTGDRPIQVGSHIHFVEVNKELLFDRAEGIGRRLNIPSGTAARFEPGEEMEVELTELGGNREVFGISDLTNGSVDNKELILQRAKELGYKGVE
T1 sequence (P41020 whole entry): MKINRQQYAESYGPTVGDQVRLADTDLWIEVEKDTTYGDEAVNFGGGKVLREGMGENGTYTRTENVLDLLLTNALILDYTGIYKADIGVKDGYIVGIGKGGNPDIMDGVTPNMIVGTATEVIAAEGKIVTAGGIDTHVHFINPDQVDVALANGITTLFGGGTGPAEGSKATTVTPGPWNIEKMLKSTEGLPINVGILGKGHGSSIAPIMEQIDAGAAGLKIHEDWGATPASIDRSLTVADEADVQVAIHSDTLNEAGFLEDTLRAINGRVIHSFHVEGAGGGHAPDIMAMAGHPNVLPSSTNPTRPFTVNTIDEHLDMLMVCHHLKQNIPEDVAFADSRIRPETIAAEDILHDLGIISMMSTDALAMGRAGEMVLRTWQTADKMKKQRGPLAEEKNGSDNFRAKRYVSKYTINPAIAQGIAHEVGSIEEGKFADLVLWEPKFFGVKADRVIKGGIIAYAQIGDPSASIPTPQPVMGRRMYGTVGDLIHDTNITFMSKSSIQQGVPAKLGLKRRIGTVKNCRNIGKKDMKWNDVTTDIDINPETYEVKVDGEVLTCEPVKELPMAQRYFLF
Method: The kinetic properties of the compounds as potential urease inhibitors were evaluated against native enzyme purified from S. pasteurii CCM 2056 culture. Residual enzyme activity was expressed as ammonia release from urea followed quantitively using the Berthelot reaction. All of the studied structures were reversibly inhibitory, with dissociation constants ranging from submicromolar to moderate micromolar concentrations (Table 1). The α quantifier between the enzyme-substrate-inhibitor complex (ESI) dissociation constant Ki* and the EI dissociation constant Ki [drawing 1] was calculated to determine the influence of substrate binding on the stability of the EI complex. […] For modeled compounds 19, 16, and 29, the values of α were 152.01, 38.04, and 14.52, respectively. […] For comparison, the α value of compound 52 was 1.37.
The S. pasteurii CCM 2056 cells were used as the source of a native enzyme. The culture medium was made of 20 g/L yeast extract. One day after the inoculation, the medium was further supplemented with 1 mM NiCl2 and 1% urea. After 2 more days of growth, the cells were centrifuged and disintegrated via sonication. Enzyme purification from the cell extract was conducted using a five-step chromatographic method as previously reported.[50]
Inhibition of the purified urease was measured using the indophenol assay for ammonia concentration.[65] The kinetic assays in 3 mM phosphate buffer contained the purified enzyme, studied thiourea analogues, and a range of urea concentrations up to saturating 30 mM. Total progress curves were analyzed with the addition of the enzyme at the reaction start. Assays were terminated with the sequential addition of 100 μL of M1 ([…] sodium nitroprusside, 0.53 M phenol) and M2 (0.625 M sodium hydroxide, 47.1 mM sodium hypochlorite) solution to 50 μL of reaction mixture sample. After 15 min of color development, absorbance at 650 nm was measured. […] In order to verify the inhibition mode as well as calculate the dissociation constant for EI complex, Lineweaver–Burke curves were plotted (1/v = f(1/[S])). For noncompetitive or mixed inhibition mode, Ki was calculated from plots of the LB curves slope as a function of inhibitor concentration.

[2] = test system: live cells of S. pasteurii CCM 2056; experiment: Whole-cell ureolysis: ammonia release from urea in live cells; assay type: cell-based, Sporosarcina pasteurii; settings: for IC50: Sporosarcina pasteurii, CCM2056
[3] = test system: live cells of P. mirabilis PCM 543; experiment: as above; assay type: cell-based, Proteus mirabilis; settings: urea hydrolysis in live cells, 30 mM urea, 10 mM PBS, read-out: IC50 [μM] (± SD) P. mirabilis cells
Method: Proteus mirabilis PCM 543 was cultured as described for S. pasteurii except for nickel ions—0.3 mM NiCl2 was used in the growth medium. Cells harvested by centrifugation were resuspended in 10 mM PBS and used for urease activity measurements. Assays were conducted in 10 mM PBS containing 30 mM urea and different concentrations of urease inhibitors and ammonia quantified by indophenol assay.

[4] = urea hydrolysis in live cells, 30 mM urea, 10 mM PBS, read-out: IC50 [μM] (± SD) S. pasteurii cells

SMILES | Ki ([1]; read-out: Ki [μM] (± SD)) | IC50 [2, 4] [µM] | IC50 ([3]; Proteus mirabilis) [µM] | also measured
S=C(NCc1ccccc1)Nc1nc(-c2ccccc2)cs1 [Compound 49, 1-Benzyl-3-(4-phenylthiazol-2-yl)thiourea] | 46 ± 3.71 µM | 476 ± 26.1 | 554 ± 18.8 | 
Cc1ccc(/C=N/NC(N)=S)cc1 [Compound 16, (E)-2-(4-Methylbenzylidene)hydrazine-1-carbothioamide] | 0.99 µM and 0.998 µM | 9.92 ± 1.31 | 282 ± 32.4 | α quantifier between ESI dissociation constant Ki* and EI dissociation constant Ki [1]: 38.04
COc1ccc(-c2csc(NC(=S)NCc3ccccc3)n2)cc1 [Compound 50, 1-Benzyl-3-(4-(4-methoxyphenyl)thiazol-2-yl)thiourea] | 41.4 ± 3.73 µM |  |  | 
Cc1ccc(/C=C/C(=N\NC(=S)NN)c2ccccc2)cc1 [Compound 30, N′-((1E,2E)-1-Phenyl-3-(p-tolyl)allylidene)hydrazinecarbothiohydrazide] | 59.5 ± 4.4 µM | 553 ± 27.8 |  | 
Cc1ccc(/C=N/NC(=S)NN)cc1 [Compound 28, (E)-N′-(4-Methylbenzylidene)hydrazinecarbothiohydrazide] | 13.5 ± 3.16 µM | 118 ± 7.7 | 664 ± 35.2 | 
COc1ccc(C2=NN(C(N)=S)C(c3ccccc3)C2)c(OC)c1 (stereo not shown) [Compound 36, 3-(2,4-Dimethoxyphenyl)-5-phenyl-4,5-dihydro-1H-pyrazole-1-carbothioamide] | 57.7 ± 4.42 µM |  |  | 
NC(=S)N1N=C(c2ccccc2)CC1c1ccc(F)cc1 (stereo not shown) [Compound 35, 5-(4-Fluorophenyl)-3-phenyl-4,5-dihydro-1H-pyrazole-1-carbothioamide] | 46.5 ± 6.3 µM |  |  | 
Cc1ccc(C2CC(c3ccccc3)=NN2C(N)=S)cc1 (stereo not shown) [Compound 33, 3-Phenyl-5-(p-tolyl)-4,5-dihydro-1H-pyrazole-1-carbothioamide] | 87.1 ± 9.29 µM |  |  | 
C/C(=N\NC(N)=S)c1ccccc1 [Compound 19, (E)-2-(1-Phenylethylidene)hydrazine-1-carbothioamide] | 0.39 µM and 0.391 µM | 194 ± 12.5 | 568 ± 47.7 | α quantifier between ESI dissociation constant Ki* and EI dissociation constant Ki [1]: 152.01
NC(=S)N/N=C(\C=C\c1ccc(F)cc1)c1ccccc1 [Compound 24, (E)-2-((E)-3-(4-Fluorophenyl)-1-phenylallylidene)hydrazine-1-carbothioamide] | 24.2 ± 1.52 µM | 36.2 ± 2.84 | 510 ± 17.8 | 
NNC(=S)N/N=C(\C=C\c1ccccc1)c1ccccc1 [Compound 29, N′-((1E,2E)-1,3-Diphenylallylidene)hydrazinecarbothiohydrazide] | 2.24 µM |  |  | α quantifier between ESI dissociation constant Ki* and EI dissociation constant Ki [1]: 14.52
S=C(NCc1ccccc1)Nc1nc(-c2ccc(Br)cc2)cs1 [Compound 53, 1-Benzyl-3-(4-(4-bromophenyl)thiazol-2-yl)thiourea] | 10.7 ± 0.79 µM | 416 ± 32.4 | 638 ± 48.2 | 
Oc1ccc(-c2csc(NC(=S)NCc3ccccc3)n2)cc1 [Compound 52, 1-Benzyl-3-(4-(4-hydroxyphenyl)thiazol-2-yl)thiourea] | 2.76 µM | 76.3 ± 4.5 | 304 ± 14 | type (mode) of inhibition [1]: noncompetitive inhibition; α quantifier between ESI dissociation constant Ki* and EI dissociation constant Ki [1]: 1.37; fold change of inhibitory activity (IC50) against S. pasteurii cells compared to nonhydroxylated analogue 49 ([2]; 52 versus 49): over 6 fold; IC50 [3]: 304 ± 13.9 µM
COc1ccc(C2=CC(c3ccccc3)NC(=S)N2)c(OC)c1 (stereo not shown) [Compound 41, 6-(2,4-Dimethoxyphenyl)-4-phenyl-3,4-dihydropyrimidine-2(1H)-thione] | 47.7 ± 6.31 µM |  |  | 
COc1ccc(-c2csc(NC(=S)NCc3ccccc3)n2)c(OC)c1 [Compound 51, 1-Benzyl-3-(4-(2,4-dimethoxyphenyl)thiazol-2-yl)thiourea] |  | 326 ± 18.7 | 509 ± 31.6 | Ki ([1]; Ki [μM] (± SD)): 22.2 ± 2.66 µM
NC(=S)N1N=C(c2ccccc2)CC1c1ccccc1 (stereo not shown) [Compound 32, 3,5-Diphenyl-4,5-dihydro-1H-pyrazole-1-carbothioamide] | 71.7 ± 8.26 µM |  |  | 

SMILES | Ki ([1]; read-out: Ki [μM] (± SD)) | IC50 [2, 4] [µM] | IC50 ([3]; Proteus mirabilis) [µM] | also measured
C/C(=N\NC(N)=S)c1ccc(O)cc1 [Compound 20, (E)-2-(1-(4-Hydroxyphenyl)ethylidene)hydrazine-1-carbothioamide] | 33.4 ± 2.61 µM | 87.6 ± 9.07 | 513 ± 33.9 | type (mode) of inhibition [1]: noncompetitive
COc1ccc(/C=N/NC(N)=S)cc1OC [Compound 18, (E)-2-(3,4-Dimethoxybenzylidene)hydrazine-1-carbothioamide] | 37.5 ± 4.79 µM |  |  | 
SC1=NC(c2ccccc2)=CC(c2ccccc2)N1 (stereo not shown) [Compound 37, 4,6-Diphenyl-3,4-dihydropyrimidine-2(1H)-thione] | 36.2 ± 5.2 µM |  |  | 
NNC(=S)N/N=C/c1ccccc1 [Compound 27, (E)-N′-Benzylidenehydrazinecarbothiohydrazide] | 8.31 ± 0.438 µM | 11.6 ± 0.65 | 544 ± 17.9 | 
Cc1ccc(/C=C/C(=N\NC(N)=S)c2ccccc2)cc1 [Compound 22, (E)-2-((E)-1-Phenyl-3-(p-tolyl)allylidene)hydrazine-1-carbothioamide] | 5.18 ± 0.691 µM | 764 ± 50.3 | 1110 ± 126 | 
NC(=S)N/N=C(\C=C\c1ccccc1)c1ccccc1 [Compound 21, (E)-2-((E)-1,3-Diphenylallylidene)hydrazine-1-carbothioamide] | 6.13 ± 0.714 µM | 102 ± 8.4 | 519 ± 27.6 | type (mode) of inhibition [1]: noncompetitive
NC(=S)N/N=C/c1ccc(Cl)cc1 [Compound 17, (E)-2-(4-Chlorobenzylidene)hydrazine-1-carbothioamide] | 8.15 ± 0.908 µM | 16.4 ± 0.94 | 454 ± 26.3 | 
COc1ccc(C(/C=C/c2ccccc2)=N/NC(N)=S)c(OC)c1 [Compound 26, (E)-2-((E)-1-(2,4-Dimethoxyphenyl)-3-phenylallylidene)hydrazine-1-carbothioamide] | 3.02 ± 0.23 µM | 134 ± 11.4 |  | type (mode) of inhibition [1]: noncompetitive
NC(=S)N/N=C(\C=C\c1ccccc1)c1ccc(O)cc1 [Compound 25, (E)-2-((E)-1-(4-Hydroxyphenyl)-3-phenylallylidene)hydrazine-1-carbothioamide] | 5.4 ± 0.327 µM | 149 ± 8.7 | 763 ± 41.1 | type (mode) of inhibition [1]: noncompetitive
NNC(=S)N/N=C(\C=C\c1ccc(Cl)cc1)c1ccccc1 [Compound 31, N′-((1E,2E)-3-(4-Chlorophenyl)-1-phenylallylidene)hydrazinecarbothiohydrazide] | 12.8 ± 1.54 µM | 132 ± 6.9 |  | 
NC(=S)N/N=C(\C=C\c1ccc(Cl)cc1)c1ccccc1 [Compound 23, (E)-2-((E)-3-(4-Chlorophenyl)-1-phenylallylidene)hydrazine-1-carbothioamide] | 14.9 ± 2.01 µM | 58.4 ± 3.21 | 430 ± 26.9 | 
NC(=S)N/N=C/c1ccccc1 [Compound 15, (E)-2-Benzylidenehydrazine-1-carbothioamide] | 3.57 ± 0.182 µM | 3.83 ± 0.282 | 347 ± 23.1 | IC50 ([2]; Gram-positive S. pasteurii cells, ureolysis inhibition, read-out: IC50 in S. pasteurii cells (unit inferred)): 3.8 ± 0.2 µM
Fc1ccc(C2C=C(c3ccccc3)NC(=S)N2)cc1 (stereo not shown) [Compound 40, 4-(4-Fluorophenyl)-6-phenyl-3,4-dihydropyrimidine-2(1H)-thione] | 5.55 ± 0.873 µM |  |  | 
S=C1NC(c2ccccc2)=CC(c2ccc(Cl)cc2)N1 (stereo not shown) [Compound 39, 4-(4-Chlorophenyl)-6-phenyl-3,4-dihydropyrimidine-2(1H)-thione] | 30.2 ± 4.23 µM |  |  | 
Cc1ccc(C2C=C(c3ccccc3)NC(=S)N2)cc1 (stereo not shown) [Compound 38, 6-Phenyl-4-(p-tolyl)-3,4-dihydropyrimidine-2(1H)-thione] | 27.4 ± 3.47 µM |  |  | 
NC(=S)N1N=C(c2ccccc2)CC1c1ccc(Cl)cc1 (stereo not shown) [Compound 34, 5-(4-Chlorophenyl)-3-phenyl-4,5-dihydro-1H-pyrazole-1-carbothioamide] | 30.5 ± 2.84 µM |  |  | 
